The target in one series is T1, MMP-9 (Homo sapiens, UniProt P14780).
T1 construct: endogenous in cells; host or cells: HT1080 human fibrosarcoma cells, TPA-stimulated; enzyme purified from conditioned medium
Kind of series: Assay for inhibitory activities on MMPs (fluorogenic peptide substrate), MMP-9. It counts as biochemical. Conditions: MMP-9 from HT1080 cells, activated by TPCK-Trypsin; substrate MOCAc-Pro-Leu-Gly-Leu-A2Pr(DNP)-Ala-Arg-NH2. A digest of the protocol: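 ProMMP-9 from TPA-stimulated (50 ng/ml) HT1080 fibrosarcoma conditioned medium, chromatographically purified free of TIMPs, then activated with TPCK-trypsin. Activity read fluorometrically on MOCAc-Pro-Leu-Gly-Leu-A2Pr(DNP)-Ala-Arg-NH2; % inhibition = {1−(A−B)/(C−D)}×100 from reactions with/without enzyme and inhibitor, IC50 as 50% inhibiting concentration.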

Another series addresses T2, MMP-2 (Homo sapiens, UniProt P08253).
T2 construct: purchased Calbiochem-Novabiochem International, Inc
T2 sequence (P08253 110-660): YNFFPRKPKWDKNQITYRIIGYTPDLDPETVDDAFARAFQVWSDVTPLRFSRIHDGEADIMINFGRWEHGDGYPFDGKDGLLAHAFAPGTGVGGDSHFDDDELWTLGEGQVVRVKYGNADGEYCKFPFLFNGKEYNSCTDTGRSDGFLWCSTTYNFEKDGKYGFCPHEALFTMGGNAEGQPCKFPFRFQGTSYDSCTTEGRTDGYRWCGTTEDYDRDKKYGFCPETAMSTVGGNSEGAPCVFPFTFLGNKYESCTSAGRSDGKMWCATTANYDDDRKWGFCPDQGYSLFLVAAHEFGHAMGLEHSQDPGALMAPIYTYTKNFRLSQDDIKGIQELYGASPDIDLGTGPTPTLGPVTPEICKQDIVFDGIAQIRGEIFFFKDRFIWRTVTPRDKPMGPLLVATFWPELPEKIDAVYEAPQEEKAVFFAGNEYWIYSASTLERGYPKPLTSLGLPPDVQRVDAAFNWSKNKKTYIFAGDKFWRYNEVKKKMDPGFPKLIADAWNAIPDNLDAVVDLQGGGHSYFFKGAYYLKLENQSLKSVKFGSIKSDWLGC
Kind of series: Assay for inhibitory activities on MMPs (fluorogenic peptide substrate), MMP-2. The format is biochemical. Conditions: purchased MMP-2; substrate MOCAc-Pro-Leu-Gly-Leu-A2Pr(DNP)-Ala-Arg-NH2.

In the next series the target is T3, MMP-12 (Homo sapiens, UniProt P39900).
T3 construct: catalytic domain(^100Phe˜^263Gly) was amplified with RT-PCR; His-tag; enterokinase digestion-site; made in house; host or cells: Escherichia coli
T3 sequence (P39900 100-263): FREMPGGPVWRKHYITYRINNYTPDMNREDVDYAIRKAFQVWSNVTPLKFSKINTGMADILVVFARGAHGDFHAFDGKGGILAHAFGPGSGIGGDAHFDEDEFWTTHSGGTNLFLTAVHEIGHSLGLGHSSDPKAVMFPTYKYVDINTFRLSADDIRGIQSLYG
Kind of series: Assay for inhibitory activities on MMPs (fluorogenic peptide substrate), MMP-12. The format is biochemical. To be noted: catalytic domain 100Phe-263Gly; substrate MOCAc-Pro-Leu-Gly-Leu-A2Pr(DNP)-Ala-Arg-NH2. The gist of the method: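 Human MMP-12 catalytic domain (Phe100–Gly263), His-tagged, E. coli-expressed and refolded from urea. Continuous fluorogenic assay with MOCAc-Pro-Leu-Gly-Leu-A2Pr(DNP)-Ala-Arg-NH2; % inhibition from fluorescence of enzyme/inhibitor, inhibitor-only, enzyme-only and substrate-only reactions, giving IC50.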

The target of a further series is T4, MMP-13 (Homo sapiens, UniProt P45452).
T4 construct: catalytic domain (^104Tyr˜^267Gly) was amplified with RT-PCR; His-tag; enterokinase digestion-site; made in house; host or cells: Escherichia coli
Kind of series: Assay for inhibitory activities on MMPs (fluorogenic peptide substrate), MMP-13. To be noted: catalytic domain 104Tyr-267Gly; substrate MOCAc-Pro-Leu-Gly-Leu-A2Pr(DNP)-Ala-Arg-NH2. It counts as biochemical. The gist of the method: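 Catalytic domain (Tyr104–Gly267) of human MMP-13, His-tagged, expressed in E. coli, refolded from urea and activated. Fluorogenic substrate MOCAc-Pro-Leu-Gly-Leu-A2Pr(DNP)-Ala-Arg-NH2. % inhibition from fluorescence with blanks lacking enzyme and/or inhibitor; IC50 is the concentration giving 50% inhibition.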

The next series deals with T5, MMP-8 (Homo sapiens, UniProt P22894).
T5 construct: catalytic domain (^99Phe˜^262Gly) was amplified with PCR; His-tag; enterokinase digestion-site; made in house; host or cells: Escherichia coli
T5 sequence (P22894 99-262): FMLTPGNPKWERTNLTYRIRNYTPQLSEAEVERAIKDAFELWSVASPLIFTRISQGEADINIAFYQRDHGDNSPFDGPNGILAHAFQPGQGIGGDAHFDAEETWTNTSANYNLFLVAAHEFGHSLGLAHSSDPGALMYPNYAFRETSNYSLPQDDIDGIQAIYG
Kind of series: Assay for inhibitory activities on MMPs (fluorogenic peptide substrate), MMP-8. The format is biochemical. Conditions: catalytic domain 99Phe-262Gly; substrate MOCAc-Pro-Leu-Gly-Leu-A2Pr(DNP)-Ala-Arg-NH2.

T1 sequence (P14780 107-707 limits assumed): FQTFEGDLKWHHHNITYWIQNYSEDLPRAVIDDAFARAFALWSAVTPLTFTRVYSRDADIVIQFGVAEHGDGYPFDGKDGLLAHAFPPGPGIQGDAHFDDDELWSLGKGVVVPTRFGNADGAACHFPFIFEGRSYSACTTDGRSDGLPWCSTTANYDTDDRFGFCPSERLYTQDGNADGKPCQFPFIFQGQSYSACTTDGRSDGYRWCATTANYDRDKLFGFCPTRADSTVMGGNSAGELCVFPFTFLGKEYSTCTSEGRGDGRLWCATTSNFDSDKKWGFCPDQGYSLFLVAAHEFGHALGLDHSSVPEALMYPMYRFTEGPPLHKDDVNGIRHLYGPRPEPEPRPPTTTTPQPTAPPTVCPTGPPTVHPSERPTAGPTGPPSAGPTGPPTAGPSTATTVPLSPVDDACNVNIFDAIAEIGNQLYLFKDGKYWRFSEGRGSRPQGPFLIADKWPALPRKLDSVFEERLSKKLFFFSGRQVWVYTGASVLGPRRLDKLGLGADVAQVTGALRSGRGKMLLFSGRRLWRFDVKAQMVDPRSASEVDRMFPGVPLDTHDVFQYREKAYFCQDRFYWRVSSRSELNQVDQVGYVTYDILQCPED

Turning to `O=C(O)[C@@H](Cc1ccccc1)NS(=O)(=O)c1ccc(-c2ncc(-c3ccc4ccccc4c3)o2)cc1` [Compound A-1], the melting point was in the range of 243 to 245 °C. On MMP-9, the half-inhibitory concentration (IC50) stood at 212 nM. The same molecule gave an IC50 at MMP-2 of 9.31 nM. The molecule also gave an IC50 at MMP-12 of 1.88 nM. This molecule came in with an IC50 at MMP-13 of 15 nM. The molecule also had a concentration for half-maximal inhibition (IC50) at MMP-8 of 230 nM.

In turn, `COc1ccc(-c2cnc(-c3ccc(S(=O)(=O)N[C@H](Cc4ccccc4)C(=O)O)cc3)s2)cc1` [Compound B-1] came in with a melting point of 222 to 223 °C. The IC50 at MMP-9 is 43.8 nM. Further, half-maximal inhibition at MMP-2 (IC50) required 1.29 nM. Also, at MMP-12, the IC50 was determined as 3.55 nM. Besides, half-maximal inhibition at MMP-13 (IC50) was put at 2.96 nM. Moreover, it took 28.2 nM to reach half-maximal inhibition against MMP-8 (IC50).
